Measurements taken from patent US8952157B2, “Apoptosis-inducing agents for the treatment of cancer and immune and autoimmune diseases” (AbbVie Inc., priority 2008, dated 2015).

Target: GST-Bcl-2 (Homo sapiens (Human), UniProt P10415)
Experiment: Time Resolved-Fluorescence Resonance Energy Transfer (TR-FRET) Bcl-2 binding assay
Conditions: GST-Bcl-2 1 nM, F-Bak peptide probe 100 nM, Tb-anti-GST antibody 1 nM; Ki by Wang's equation
Outline: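 Competition TR-FRET: GST-Bcl-2 with fluorescent Bak peptide probe and Tb-anti-GST antibody, compounds serially diluted from 50 μM (2× start, 10% DMSO).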

Sequence of GST-Bcl-2 (P10415 whole entry): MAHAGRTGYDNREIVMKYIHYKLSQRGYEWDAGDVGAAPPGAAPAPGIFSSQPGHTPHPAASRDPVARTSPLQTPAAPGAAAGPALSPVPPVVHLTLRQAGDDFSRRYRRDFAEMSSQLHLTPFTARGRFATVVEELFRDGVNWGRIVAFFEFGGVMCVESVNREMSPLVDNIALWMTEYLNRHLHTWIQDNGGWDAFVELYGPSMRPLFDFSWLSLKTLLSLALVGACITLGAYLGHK

Row | SMILES | Ki [nM]
1 | CC1(C)CCC(CN2CCN(c3ccc(C(=O)NS(=O)(=O)c4ccc(NC5CCN(CC6CC6)CC5)c([N+](=O)[O-])c4)c(Oc4cccc(Cl)c4)c3)CC2)=C(c2ccc(Cl)cc2)C1 [Example 187, 2-(3-chlorophenoxy)-4-(4-{[2-(4-chlorophenyl)-4,4-dimethylcyclohex-1-en-1-yl]methyl}piperazin-1-yl)-N-[(4-{[1-(cyclopropylmethyl)piperidin-4-yl]amino}-3-nitrophenyl)sulfonyl]benzamide] | 0.054
2 | O=C(NS(=O)(=O)c1ccc(NCCCN2CCOCC2)c([N+](=O)[O-])c1)c1ccc(N2CCN(Cc3ccccc3-c3ccc(Cl)cc3)CC2)cc1Oc1cccc(OCc2ccccc2)c1 [Example 93, 2-(3-(benzyloxy)phenoxy)-4-(4-((4′-chloro-1,1′-biphenyl-2-yl)methyl)piperazin-1-yl)-N-((4-((3-morpholin-4-ylpropyl)amino)-3-nitrophenyl)sulfonyl)benzamide] | 16.8
3 | CC1(C)CCC(CN2CCN(c3ccc(C(=O)NS(=O)(=O)c4ccc(NCCCN5CCNC(=O)C5)c([N+](=O)[O-])c4)c(Oc4cc5cc[nH]c5cc4F)c3)CC2)=C(c2ccc(Cl)cc2)C1 [Example 233, 4-(4-{[2-(4-chlorophenyl)-4,4-dimethylcyclohex-1-en-1-yl]methyl}piperazin-1-yl)-2-[(6-fluoro-1H-indol-5-yl)oxy]-N-[(3-nitro-4-{[3-(3-oxopiperazin-1-yl)propyl]amino}phenyl)sulfonyl]benzamide] | 0.037
4 | CC1(C)CCC(CN2CCN(c3ccc(C(=O)NS(=O)(=O)c4ccc(NC5CCN(CC6CC6)CC5)c([N+](=O)[O-])c4)c(Oc4ccccc4Cl)c3)CC2)=C(c2ccc(Cl)cc2)C1 [Example 188, 2-(2-chlorophenoxy)-4-(4-{[2-(4-chlorophenyl)-4,4-dimethylcyclohex-1-en-1-yl]methyl}piperazin-1-yl)-N-[(4-{[1-(cyclopropylmethyl)piperidin-4-yl]amino}-3-nitrophenyl)sulfonyl]benzamide] | 0.073
5 | CN1CCN(Nc2ccc(S(=O)(=O)NC(=O)c3ccc(N4CCN(CC5=C(c6ccc(Cl)cc6)CC(C)(C)CC5)CC4)cc3Oc3cnc(N)c(Br)c3)cc2[N+](=O)[O-])CC1 [Example 359, 2-[(6-amino-5-bromopyridin-3-yl)oxy]-4-(4-{[2-(4-chlorophenyl)-4,4-dimethylcyclohex-1-en-1-yl]methyl}piperazin-1-yl)-N-({4-[(4-methylpiperazin-1-yl)amino]-3-nitrophenyl}sulfonyl)benzamide] | 0.11
6 | CC1(C)CCC(CN2CCN(c3ccc(C(=O)NS(=O)(=O)c4ccc(NC5CCN(C6CCCC6)CC5)c([N+](=O)[O-])c4)c(Oc4ccccc4Cl)c3)CC2)=C(c2ccc(Cl)cc2)C1 [Example 117, 2-(2-chlorophenoxy)-4-(4-{[2-(4-chlorophenyl)-4,4-dimethylcyclohex-1-en-1-yl]methyl}piperazin-1-yl)-N-({4-[(1-cyclopentylpiperidin-4-yl)amino]-3-nitrophenyl}sulfonyl)benzamide] | 0.072
7 | CC1(C)CCC(CN2CCN(c3ccc(C(=O)NS(=O)(=O)c4cnc(OC[C@@H]5CCN(C(CF)CF)C5)c(Cl)c4)c(Oc4cnc(N)c(Cl)c4)c3)CC2)=C(c2ccc(Cl)cc2)C1 [Example 399, 2-[(6-amino-5-chloropyridin-3-yl)oxy]-N-{[5-chloro-6-({(3R)-1-[2-fluoro-1-(fluoromethyl)ethyl]pyrrolidin-3-yl}methoxy)pyridin-3-yl]sulfonyl}-4-(4-{[2-(4-chlorophenyl)-4,4-dimethylcyclohex-1-en-1-yl]methyl}piperazin-1-yl)benzamide] | < 0.01
8 | CC1(C)CCC(CN2CCN(c3ccc(C(=O)NS(=O)(=O)c4ccc(NCC5CCOCC5)c([N+](=O)[O-])c4)c(Oc4cccc5c4CCN(C(=O)OC(C)(C)C)C5)c3)CC2)=C(c2ccc(Cl)cc2)C1 [Example 260, tert-butyl 5-(5-(4-{[2-(4-chlorophenyl)-4,4-dimethylcyclohex-1-en-1-yl]methyl}piperazin-1-yl)-2-{[({3-nitro-4-[(tetrahydro-2H-pyran-4-ylmethyl)amino]phenyl}sulfonyl)amino]carbonyl}phenoxy)-3,4-dihydro isoquinoline-2(H)-carboxylate] | 11.8
9 | CC1(C)CCC(CN2CCN(c3ccc(C(=O)NS(=O)(=O)c4ccc(NC5CCN(C6COC6)CC5)c([N+](=O)[O-])c4)c(Oc4cnc(N)c(Cl)c4)c3)CC2)=C(c2ccc(Cl)cc2)C1 [Example 364, 2-[(6-amino-5-chloropyridin-3-yl)oxy]-4-(4-{[2-(4-chlorophenyl)-4,4-dimethylcyclohex-1-en-1-yl]methyl}piperazin-1-yl)-N-({3-nitro-4-[(1-oxetan-3-ylpiperidin-4-yl)amino]phenyl}sulfonyl)benzamide] | 0.014
10 | CC1(C)CCC(CN2CCN(c3ccc(C(=O)NS(=O)(=O)c4ccc(NCC5CCOCC5)c([N+](=O)[O-])c4)c(Oc4ccc(NCC(F)(F)F)nc4)c3)CC2)=C(c2ccc(Cl)cc2)C1 [Example 385, 4-(4-{[2-(4-chlorophenyl)-4,4-dimethylcyclohex-1-en-1-yl]methyl}piperazin-1-yl)-N-({3-nitro-4-[(tetrahydro-2H-pyran-4-ylmethyl)amino]phenyl}sulfonyl)-2-({6-[(2,2,2-trifluoroethyl)amino]pyridin-3-yl}oxy)benzamide] | 49.3
11 | CC1(C)CCC(CN2CCN(c3ccc(C(=O)NS(=O)(=O)c4ccc(N[C@H]5CCCN(C6CCOCC6)C5)c([N+](=O)[O-])c4)c(Oc4cc5cc[nH]c5cc4F)c3)CC2)=C(c2ccc(Cl)cc2)C1 [Example 329, 4-(4-{[2-(4-chlorophenyl)-4,4-dimethylcyclohex-1-en-1-yl]methyl}piperazin-1-yl)-2-[(6-fluoro-1H-indol-5-yl)oxy]-N-[(3-nitro-4-{[(3S)-1-tetrahydro-2H-pyran-4-ylpiperidin-3-yl]amino}phenyl)sulfonyl]benzamide] | 0.108
12 | CC1(C)CCC(CN2CCN(c3ccc(C(=O)NS(=O)(=O)c4ccc(NC5CCN(C6CCOCC6)CC5)c([N+](=O)[O-])c4)c(Oc4ccc5[nH]cc(Cl)c5c4)c3)CC2)=C(c2ccc(Cl)cc2)C1 [Example 281, 2-[(3-chloro-1H-indol-5-yl)oxy]-4-(4-{[2-(4-chlorophenyl)-4,4-dimethylcyclohex-1-en-1-yl]methyl}piperazin-1-yl)-N-({3-nitro-4-[(1-tetrahydro-2H-pyran-4-ylpiperidin-4-yl)amino]phenyl}sulfonyl)benzamide] | 0.111
13 | CC1(C)CCC(CN2CCN(c3ccc(C(=O)NS(=O)(=O)c4ccc(NC5CCN(C6CCOCC6)CC5)c([N+](=O)[O-])c4)c(Oc4cc5cc[nH]c5cc4F)c3)CC2)=C(c2ccc(Cl)cc2)C1 [Example 193, 4-(4-{[2-(4-chlorophenyl)-4,4-dimethylcyclohex-1-en-1-yl]methyl}piperazin-1-yl)-2-[(6-fluoro-1H-indol-5-yl)oxy]-N-({3-nitro-4-[(1-tetrahydro-2H-pyran-4-ylpiperidin-4-yl)amino]phenyl}sulfonyl)benzamide] | 0.064
14 | CNC(=O)c1cccc(Oc2cc(N3CCN(Cc4ccccc4-c4ccc(Cl)cc4)CC3)ccc2C(=O)NS(=O)(=O)c2ccc(NCCCN(C)C)c([N+](=O)[O-])c2)c1 [Example 104, 4-(4-((4′-chlorobiphenyl-2-yl)methyl)piperazin-1-yl)-N-(4-(3-(dimethylamino)propylamino)-3-nitrophenylsulfonyl)-2-(3-(methylcarbamoyl)phenoxy)benzamide] | 2.32
15 | CN(C)CCCNc1ccc(S(=O)(=O)NC(=O)c2ccc(N3CCN(CC4=C(c5ccc(Cl)cc5)CC(C)(C)CC4)CC3)cc2Oc2ccccc2F)cc1[N+](=O)[O-] [Example 137, 4-(4-{[2-(4-chlorophenyl)-4,4-dimethylcyclohex-1-en-1-yl]methyl}piperazin-1-yl)-N-[(4-{[3-(dimethylamino)propyl]amino}-3-nitrophenyl)sulfonyl]-2-(2-fluorophenoxy)benzamide] | 0.021
16 | CC1(C)CCC(CN2CCN(c3ccc(C(=O)NS(=O)(=O)c4ccc(NC5CCN(CCN6CCOCC6)CC5)c([N+](=O)[O-])c4)c(Oc4cccc(Cl)c4)c3)CC2)=C(c2ccc(Cl)cc2)C1 [Example 190, 2-(3-chlorophenoxy)-4-(4-{[2-(4-chlorophenyl)-4,4-dimethylcyclohex-1-en-1-yl]methyl}piperazin-1-yl)-N-[(4-{[1-(2-morpholin-4-ylethyl)piperidin-4-yl]amino}-3-nitrophenyl)sulfonyl]benzamide] | 0.077
17 | CN1CCC(Nc2ccc(S(=O)(=O)NC(=O)c3ccc(N4CCN(CC5=C(c6ccc(Cl)cc6)CC(C)(C)CC5)CC4)cc3Oc3cccc(Cl)c3F)cc2[N+](=O)[O-])CC1 [Example 147, 2-(3-chloro-2-fluorophenoxy)-4-(4-{[2-(4-chlorophenyl)-4,4-dimethylcyclohex-1-en-1-yl]methyl}piperazin-1-yl)-N-({4-[(1-methylpiperidin-4-yl)amino]-3-nitrophenyl}sulfonyl)benzamide] | 0.127
18 | CC1(C)CCC(CN2CCN(c3ccc(C(=O)NS(=O)(=O)c4cnc(OC[C@@H]5CCN(CC(F)F)C5)c(Cl)c4)c(Oc4cnc(N)c(Cl)c4)c3)CC2)=C(c2ccc(Cl)cc2)C1 [Example 400, 2-[(6-amino-5-chloropyridin-3-yl)oxy]-N-[(5-chloro-6-{[(3R)-1-(2,2-difluoroethyl)pyrrolidin-3-yl]methoxy}pyridin-3-yl)sulfonyl]-4-(4-{[2-(4-chlorophenyl)-4,4-dimethylcyclohex-1-en-1-yl]methyl}piperazin-1-yl)benzamide] | 0.082
19 | CC1(C)CCC(CN2CCN(c3ccc(C(=O)NS(=O)(=O)c4ccc(N[C@@H]5CCCN(C(CF)CF)C5)c([N+](=O)[O-])c4)c(Oc4cnc(N)c(Cl)c4)c3)CC2)=C(c2ccc(Cl)cc2)C1 [Example 382, 2-[(6-amino-5-chloropyridin-3-yl)oxy]-4-(4-{[2-(4-chlorophenyl)-4,4-dimethylcyclohex-1-en-1-yl]methyl}piperazin-1-yl)-N-{[4-({(3R)-1-[2-fluoro-1-(fluoromethyl)ethyl]piperidin-3-yl}amino)-3-nitrophenyl]sulfonyl}benzamide] | 0.114
